Experimental data published in PMC8151276, “An Integrated Approach toward NanoBRET Tracers for Analysis of GPCR Ligand Engagement” (Molecules, 2021).

Molecular target: T1, DRD2 (Homo sapiens, UniProt P14416)
T1 construct: purchased Promega (in-house HiBiT-GPCR construct library, NanoBRET)
Test: NanoBRET screen HiBiT-DRD2 in HEK293
Format: binding
Procedure: Each tracer candidate was screened across the entire library of HiBiT-GPCR constructs using NanoBRET as the detection modality. As depicted in Figure 4A, the specificity of interactions was evaluated through decrease in BRET due to competitive displacement of a bound tracer by excess parental compound. Each tracer was analyzed for binding to each HiBiT-GPCR fusion in the absence and in the presence of competing parental compound. Briefly, HEK293 cells were transfected with HiBiT-GPCR constructs diluted into promoterless DNA to reduce expression and maximize translocation to the cell surface. Each tracer candidate was then screened at concentrations of 1 μM and 0.1 μM across cells expressing these fusions. Cells were treated for 1.5 h with tracer either alone or in the presence of 20 μM competing parental compound (i.e., control). BRET was measured upon addition of purified LgBiT and subsequent complementation with HiBiT genetically fused to a GPCR. The specificity of interactions was assessed through a decrease in BRET signal due to competitive displacement of the bound tracer. To further gauge the robustness of these interactions, the fold response over the control (i.e., BRETtracer/BRETcontrol) was calculated. We chose a 1.5-fold response, which translates to ≥7-fold signal over noise as the minimal threshold required to score an interaction as positive.
HiBiT-GPCR DNA constructs were diluted in 10 mM Tris pH 8 to a final concentration of 0.01 μg/μL, arrayed in 96-well plates and stored at −20 °C. For transfection, HEK293 cells were suspended in Opti-MEM (without phenol red) supplemented with 2% fetal bovine serum (Seradigm) and 100 units/mL penicillin–streptomycin (Gibco) at a final concentration of 220,000 cells/mL and dispensed into white 96-well plates at 90 μL/well. Subsequent transfections and screens were carried using an Agilent Bravo Automated Liquid Handling Platform. First, the 96-well HiBiT DNA arrays were diluted 25-fold in Opti-MEM (without serum or phenol red) to a final concentration of 0.0004 μg/μL and 20 μL of the diluted DNAs were transferred into new 96-well plates. Next, promoterless carrier DNA (1 μg/μL) was diluted 25-fold (0.04 μg/μL) and then dispensed into the diluted arrays at 20 μL/well. Following brief mixing, Viafect transfection reagent (Promega) diluted 16-fold into Opti-MEM was dispensed into the plates at 40 μL/well. After mixing by pipetting, plates were incubated for 10 min on the pipetting station deck. The DNA-transfection reagent complexes were then added to plates containing cells. To facilitate the screen, 10 μL of DNA-transfection reagent complexes were added in duplicates to the top 4 and bottom 4 rows, resulting in two identical 48-well arrays per plate. Plates with transfected cells were incubated for 18–20 h at 37 °C/5% CO2. A screen of each tracer across the entire library using two different concentrations requires duplicate plates of transfected cells. Depending on the number of tracers being screened, transfections can be scaled up using the same ratios. The next day, for each tracer, four 20× screening solutions in tracer dilution buffer (Promega) were prepared: two duplicates at final concentration of 20 μM and two duplicates at a final concentration of 2 μM. […] The four resulting solutions were diluted 4-fold in Opti-MEM without serum or phenol red to generate 5× solutions (5 µM and 0.5 µM tracer +/− 100 μM competing compound). To screen the library, a BioTek MultiFlo FX liquid dispenser was used to dispense 22.5 µL of tracer solution to the top 4 rows and 22.5 µL tracer + competing compound solution to the 4 bottom rows. Plates were briefly mixed on an orbital shaker and incubated for 1.5 h at room temperature. […] Plates were briefly mixed on an orbital shaker and incubated for 15 min to allow complementation.

T1 sequence (P14416 whole entry): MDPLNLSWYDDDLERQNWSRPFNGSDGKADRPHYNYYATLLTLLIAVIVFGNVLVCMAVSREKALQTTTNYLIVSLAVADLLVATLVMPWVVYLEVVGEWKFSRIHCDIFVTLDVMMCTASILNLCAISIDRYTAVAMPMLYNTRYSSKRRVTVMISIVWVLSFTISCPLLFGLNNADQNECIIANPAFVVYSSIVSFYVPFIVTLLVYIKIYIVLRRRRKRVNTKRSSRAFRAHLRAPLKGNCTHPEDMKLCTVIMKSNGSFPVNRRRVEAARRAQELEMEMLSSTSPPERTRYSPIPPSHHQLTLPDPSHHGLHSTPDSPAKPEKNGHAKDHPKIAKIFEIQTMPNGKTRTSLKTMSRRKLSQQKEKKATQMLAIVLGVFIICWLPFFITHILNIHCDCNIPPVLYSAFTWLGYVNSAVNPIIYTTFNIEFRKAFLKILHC

| SMILES | NanoBRET Fold Response (DRD2, tracer 0.1μM) | NanoBRET Fold Response (DRD2, tracer 1μM) | further results |
| --- | --- | --- | --- |
| O=C(CCOCCOCCOCCOCCNC(=O)CCc1ccc2n1[B-](F)(F)[N+]1=C(c3ccc[nH]3)C=CC1=C2)NCCCN1CCN(C2=Nc3ccccc3Oc3ccc(Cl)cc32)CC1 [Loxapine-a-2-NB590] | 1.97 | 1.62 | – |
| CCCn1c(=O)c2[nH]c(-c3ccc(OCC(=O)NCCNC(=O)CCOCCNC(=O)c4ccc(CNC(=O)CCc5ccc6n5[B-](F)(F)[N+]5=C(c7ccc[nH]7)C=CC5=C6)cc4)cc3)nc2n(CCC)c1=O [XAC-3-NB590] | 1.17 | 1.85 | – |
| CN(C)CCC=C1c2ccccc2CCc2ccc(C(=O)NCCNC(=O)CCOCCOCCOCCOCCNC(=O)CCc3ccc4n3[B-](F)(F)[N+]3=C(c5ccc[nH]5)C=CC3=C4)cc21 [Amitriptyline-a-2-NB590] | – | – | NanoBRET Fold Response (tracer at 0.1μM): 1.50; NanoBRET Fold Response (tracer at 1μM): 1.97 |
| COc1ccccc1N1CCN(CCCCN2C(=O)c3ccc(CNC(=O)CCOCCOCCOCCOCCNC(=O)CCc4ccc5n4[B-](F)(F)[N+]4=C(c6ccc[nH]6)C=CC4=C5)cc3C2=O)CC1 [NAN-190-2-NB590] | 2.31 | 1.36 | – |
| O=C(CCc1ccc2n1[B-](F)(F)[N+]1=C(c3ccc[nH]3)C=CC1=C2)NCc1ccc(C(=O)NCCOCCOCCNCC(O)COc2cccc3ccccc23)cc1 (centres unmarked) [Propranolol-3-NB590] | – | – | NanoBRET Fold Response (DRD2, 0.1μM): 1.17; NanoBRET Fold Response (DRD2, 1μM): 1.09 |
| COc1ccccc1N1CCN(CCCCN2C(=O)c3ccc(CNC(=O)CCOCCNC(=O)c4ccc(CNC(=O)CCc5ccc6n5[B-](F)(F)[N+]5=C(c7ccc[nH]7)C=CC5=C6)cc4)cc3C2=O)CC1 [NAN-190-3-NB590] | 1.80 | 1.21 | – |
| O=C(CCc1ccc2n1[B-](F)(F)[N+]1=C(c3ccc[nH]3)C=CC1=C2)NCc1ccc(C(=O)NCCOCCC(=O)N[C@@H]2CC[C@@]3(O)[C@H]4Cc5ccc(O)c6c5[C@@]3(CCN4CC3CC3)[C@H]2O6)cc1 [Naltrexone-3-NB590] | 0.98 | 1.36 | – |
| CCOC(=O)c1cc(C#N)c(N2CCC(C(=O)NS(=O)(=O)Cc3ccccc3/C=C/C(=O)NCCNC(=O)CCc3ccc4n3[B-](F)(F)[N+]3=C(c5ccc[nH]5)C=CC3=C4)CC2)nc1C [AZD1283-1-NB590] | – | – | NanoBRET Fold Response (DRD2, 0.1μM): 1.04; NanoBRET Fold Response (DRD2, 1μM): 1.08 |
| COc1ccc2[nH]c(-c3ccc(CNC(=O)CCOCCOCCOCCOCCNC(=O)CCc4ccc5n4[B-](F)(F)[N+]4=C(c6ccc[nH]6)C=CC4=C5)cc3)c(CCNC(C)=O)c2n1 [AzomelatoninICO9-2-NB590] | – | – | NanoBRET Fold Response (0.1μM tracer): 1.00; NanoBRET Fold Response (1μM tracer): 1.03 |
| CC(C)N(CC[C@H](c1ccccc1)c1cc(CCNC(=O)CCOCCOCCOCCOCCNC(=O)CCc2ccc3n2[B-](F)(F)[N+]2=C(c4ccc[nH]4)C=CC2=C3)ccc1O)C(C)C [Tolterodine-2-NB590] | 1.07 | 1.09 | – |
| N#CN=C(NCCCOc1cccc(CN2CCCCC2)c1)NCCNC(=O)CCOCCOCCOCCOCCNC(=O)CCc1ccc2n1[B-](F)(F)[N+]1=C(c3ccc[nH]3)C=CC1=C2 [Aminopotentidine-2-NB590] | 1.18 | 1.22 | – |
| COc1ccc2c(n1)c(CCNC(C)=O)cn2CCNC(=O)CCc1ccc2n1[B-](F)(F)[N+]1=C(c3ccc[nH]3)C=CC1=C2 [Azamelatonin-1-NB590] | – | – | NanoBRET Fold Response (0.1μM tracer): 1.19; NanoBRET Fold Response (1μM tracer): 0.52 |
| CN(CCC=C1c2ccccc2CCc2ccccc21)C(=O)CCOCCOCCOCCOCCNC(=O)CCc1ccc2n1[B-](F)(F)[N+]1=C(c3ccc[nH]3)C=CC1=C2 [Amitriptyline-e-2-NB590] | – | – | NanoBRET Fold Response (tracer at 1μM): 1.34 |
| N#CN/C(=N\CCNC(=O)c1ccc(N)cc1)NCCCOc1cccc(CN2CCCCC2)c1 [Aminopotentidine (unmodified)] | – | – | NanoBRET Fold Response (DRD2, other tracers/Aminopotentidine (unmodified), 0.1μM): 1.53; NanoBRET Fold Response (DRD2, other tracers/Aminopotentidine (unmodified), 1μM): 1.51 |
| CC(C)N(CC[C@H](c1ccccc1)c1cc(CCNC(=O)c2ccc(CNC(=O)CCc3ccc4n3[B-](F)(F)[N+]3=C(c5ccc[nH]5)C=CC3=C4)cc2)ccc1O)C(C)C [Tolterodine-BZ-NB590] | 1.34 | 1.78 | – |
| O=C(CCc1ccc2n1[B-](F)(F)[N+]1=C(c3ccc[nH]3)C=CC1=C2)NCCOCCOCCNC(=O)OCCOCCN1CCN(C2=Nc3ccccc3Sc3ccccc32)CC1 [Quetiapine-a-2-NB590] | 1.86 | 1.76 | – |
| Cc1cc2c(s1)Nc1ccccc1N=C2N1CCN(CCCNC(=O)CCOCCOCCOCCOCCNC(=O)CCc2ccc3n2[B-](F)(F)[N+]2=C(c4ccc[nH]4)C=CC2=C3)CC1 [Olanzapine-a-2-NB590] | 1.98 | 2.25 | – |
| CN(C)CCC=C1c2ccccc2CCc2ccc(C(=O)NCCNC(=O)CCOCCOCCOCCOCCNC(=O)CCc3ccc4n3[B-](F)(F)[N+]3=C(c5ccc[nH]5)C=CC3=C4)cc21 [Amitriptyline-b-2-NB590] | – | – | NanoBRET Fold Response (tracer at 0.1μM, listed as amitriptyline-b-2-NB590): 1.54 |
| O=C(CCOCCOCCOCCOCCNC(=O)CCc1ccc2n1[B-](F)(F)[N+]1=C(c3ccc[nH]3)C=CC1=C2)NCCCN1CCN(C2=Nc3cc(Cl)ccc3Nc3ccccc32)CC1 [Clozapine-a-2-NB590] | – | – | NanoBRET Fold Response (DRD2, 0.1μM tracer): 2.85; NanoBRET Fold Response (DRD2, 1μM tracer): 2.37 |
| Cc1nc2n(c(=O)c1CCN1CCC(c3noc4cc(F)ccc34)CC1)CCCC2OC(=O)NCCOCCOCCOCCOCCNC(=O)CCc1ccc2n1[B-](F)(F)[N+]1=C(c3ccc[nH]3)C=CC1=C2 (centres unmarked) [Risperidone-2-NB590] | 2.85 | 2.07 | – |
